Reference: patent publication US20140234345A1, “NOVEL ANTI-CANCER ISOC[…] CONJUGATES” (priority 2011, published 2014)

Tests used:
[1] = test system: A549, BxPC-3, HeLa, LoVo, MCF-7 and PC-3 cells; assay: In vitro testing on various tumour cell lines (Alamar Blue cell viability); assay type: cell-based; conditions: after 48 hours
Description: (§1) A549 (CCL-185), BxPC-3 (CRL-1687), HeLa (CCL-2), LoVo (CCL-229), MCF-7 (HTB-22), and PC-3 (CRL-1435) cells were purchased from ATCC (Manassas, Va.). Alamar Blue was purchased from Invitrogen Canada Inc. (Burlington, ON). All other tissue culture and reagent grade materials were purchased from either VWR (Mississauga, ON) or Sigma Aldrich (Oakville, ON).
(§2) All cell lines were maintained at 37° C. in a CO2 cell culture incubator with 5% CO2 and 95% humidity. A549, Lovo, and PC-3 cells were cultured in F-12K media, BxPC-3 cells were culture in RPMI-1640 media, and HeLa and MCF-7 cells were cultured in Eagle's Minimum Essential Media (MEM) with […]. All cell culture media was supplemented with 10% fetal bovine serum (FBS), […] Penicillin, 0.1 mg/mL Streptomycin, 2.5 μg/mL Amphotericin B, and 50 μg/mL Gentamycin. In addition, MEM media for MCF-7 cells also contained 0.01 mg/mL bovine insulin.

[2] = test system: pancreas tumour cell line; assay: In vitro tumour cell line testing, pancreas; assay type: cell-based; conditions: for effect on pancreas tumour cell line: after 48 hours
Description: as §1, §2

[3] = test system: colorectal tumour cell line; assay: In vitro tumour cell line testing, colorectal; assay type: cell-based; conditions: for effect on colorectal tumour cell line: after 48 hours
Description: as §1, §2

[4] = test system: prostate tumour cell line; assay: In vitro tumour cell line testing, prostate; assay type: cell-based; conditions: for effect on prostate tumour cell line: after 48 hours
Description: as §1, §2

[5] = test system: cervical tumour cell line; assay: In vitro tumour cell line testing, cervical; assay type: cell-based; conditions: for effect on cervical tumour cell line: after 48 hours
Description: as §1, §2

[6] = test system: lung tumour cells; assay: In vitro tumour cell line testing, lung; assay type: cell-based; conditions: after 72 hours
Description: as §1, §2

[7] = Cell viability of healthy PBMC
Description: (§3) All cell lines were plated in black, tissue culture treated, 96 well plates at a cell density of 1×10^5 celis/mL (1×10^4 cells/well). Cells were allowed 24 h to attach to the plate prior to being dosed with drug. […] Cells were allowed to incubate for 48 or 72 h. Following incubation cells were stained with Alamar Blue such that the final concentration of Alamar Blue in the test well was 10%. Cells were stained for 2 h and then fluorescence was measured on a Molecular Devices Analyst GT multimode plate reader using an excitation filter of 530/25 nm and an emission filter of 580/10 nm and a 561 nm dichroic mirror. Cell viability was expressed as a percentage of untreated control cells. Data are expressed as mean±standard error and are the average of four independent cell preparations.
(§4) Healthy PBMC (Peripheral Blood Mononuclear Cells) were treated similarly to the above tumour cell line tests.

[8] = test system: Healthy PBMC (Peripheral Blood Mononuclear Cells); assay: Cell viability of healthy PBMC
Description: as §3, §4

[9] = Amount of I(a) dissolved in Vitamin E TPGS composition (HPLC assay of centrifugate); assay type: physicochemical; conditions: 15:100 w/w I(a):Vitamin E TPGS, 45° C., water 8 ml per 100 mg Vitamin E, centrifuged
Description: A stir bar was then added and the solution was continuously mixed while at 45° C. for a minimum of 2 hours to allow full saturation of the product. […] The mixture was then cooled to room temperature, and centrifuged to separate the undissolved material. The centrifugate was assayed for the amount of compound I(a) using HPLC.

[10] = I(a) concentration in Cremophor EL:ethanol composition (HPLC); assay type: physicochemical; conditions: 1:60 w/w I(a):CrEL, ethanol 1:1 v/v to CrEL, room temperature
Description: One to sixty (1:60) ratio by weight of compound I(a) to CrEL was mixed into a glass vial and stirred for about one hour at room temperature to allow solubilization. Dehydrated ethanol USP was then added at a ratio (v/v) one to one (1:1) to CrEL. The mixture was stirred for half hour to ensure the dissolution of the mixture. The final solution was then tested by HPLC to verify compound I(a) concentration.

| SMILES | anti-cancer effect against a wide variety of cancers [1] | effect on pancreas tumour cell line [2] | effect against pancreas cancer ([2]; after 72 hours) | effect on colorectal tumour cell line [3] | effect against colorectal cancer ([3]; after 72 hours) | effect on prostate tumour cell line [4] | results on prostate tumour cells ([4]; after 72 hours) | effect on cervical tumour cell line [5] | results on cervical tumour cells ([5]; after 72 hours) | results on lung tumour cells [6] | viability [7] [%] | viability at 2.265 µM [7] [%] | selectivity for cancer cells over healthy cells ([8]; PBMC tests compared to tumour cell line tests) | PBMC cell death compared to narciclasine ([8]; in DMSO, 48 and 72 hours) | amount of I(a) contained in resultant formulation [9] [mg/mL] | amount of I(a) contained in resultant formulation [10] [mg/mL] |
| --- | --- | --- | --- | --- | --- | --- | --- | --- | --- | --- | --- | --- | --- | --- | --- | --- |
| CC/C=C\C/C=C\C/C=C\C/C=C\C/C=C\C/C=C\CCC(=O)O[C@H]1C=C2c3cc4c(c(O)c3C(=O)N[C@H]2[C@H](O)[C@@H]1O)OCO4 [Compound I(a), Narciclasine 2-Hydroxy DHA Conjugate] | strong anti-cancer effect | strong effect | works well | strong effect | works well | strong effect | good results | strong effect | good results | good results | ~90 | > 60 | selectively kill cancer cells at a much higher percentage than healthy cells | small increase of cell death | 1.8 to 1.9 | 9.9 |
| O=C1N[C@@H]2C(=C[C@H](O)[C@@H](O)[C@H]2O)c2cc3c(c(O)c21)OCO3 [narciclasine, reference compound] | strong anti-cancer effect | strong effect |  | strong effect |  | strong effect |  | strong effect |  |  |  |  |  |  |  |  |
